Laboratory results: the C3SDB collision cross section collection

Key:
[1] = instrument: TW, calibrated with phosphatidylcholines (ESI+) and phosphatidylethanolamines (ESI-)
[2] = instrument: DT, single field, calibrated with Agilent tune mix (Agilent)
[3] = [M+Na]+; instrument: DT; stepped-field

Compound	collision cross section (N2) ([1]; [M+H]+) [Å²]	collision cross section (N2) ([1]; [M-H]-) [Å²]	collision cross section (N2) ([1]; [M+Na]+) [Å²]	also measured
CCCCCCCCCCCCC=CC[C@@H](O)[C@H](CO)NC(=O)CCCCCCCCCCCCCCCCCCCCC [Cer(d18:0/22:1)]	271.9	–	–	–
CCCCCCCCCCCCC=CC[C@@H](O)[C@H](CO)NC(=O)CC=CCCCCCCCCCCCCCC [Cer(d18:1/18:1)]	257.6	248.5	–	–
CCCCCCCCCCCCC=CC[C@@H](O)[C@H](CO)NC(=O)CCCCCCCCCCCCCCCCCCC [Cer(d18:1/20:0)]	266.5	255.8	–	–
CCCCCCCCCCCCC=CC[C@@H](O)[C@H](CO)NC(=O)CCCCCCCCCCCCCCCCCCCCC [Cer(d18:1/22:0)]	271.8	262	–	–
CCCCCCCCCCCCC=CC[C@@H](O)[C@H](CO)NC(=O)CCCCCCCCCCCCCCCCCCCCCCC [Cer(d18:1/24:0)]	279.1	268	–	–
CCCCCCCCCCCCC=CC[C@@H](O)[C@H](CO)NC(=O)CC=CCCCCCCCCCCCCCCCCCCCC [Cer(d18:1/24:1)]	276.8	266.4	–	–
CCCCCCCCCCCCCCCC(=O)O[C@@H](CO)COC(=O)CCCCCCCCCCC [DG(14:0/14:0)]	–	–	–	collision cross section (N2) ([1]; [M+H-H2O]+): 242.3 Å²
CCCCCCCCCCCCCCCCCCCCCC(=O)O[C@@H](CO)COC(=O)CCCCCCCCCCCCC [DG(18:0/18:0)]	–	–	–	collision cross section (N2) ([1]; [M+H-H2O]+): 270.5 Å²
CCCCC/C=C\C/C=C\C/C=C\CCCCC(=O)OC[C@H](CO)OC(=O)CCCCCCC/C=C\CCCCCCCC [DG(18:2/18:2)]	–	–	–	collision cross section (N2) ([1]; [M+H-H2O]+): 255.9 Å²
CC/C=C\C/C=C\C/C=C\C/C=C\C/C=C\CCCCCC(=O)O[C@@H](CO)COC(=O)CCCC/C=C\C/C=C\C/C=C\CCCCC [DG(20:4/20:4)]	–	–	–	collision cross section (N2) ([1]; [M+H-H2O]+): 262.6 Å²
CCCCCCCCCCCCC=CC[C@@H](O)[C@H](CO[C@@H]1O[C@H](CO)[C@@H](O)C(O)C1O)NC(=O)CCCCCCCCCCCCCCCCC (stereo partly specified) [GlcCer(d18:1/18:0)]	282.6	–	282.2	–
CCCCCCCCCCCCC=CC[C@@H](O)[C@H](CO[C@@H]1O[C@H](CO)[C@@H](O)C(O)C1O)NC(=O)CCCCCCCCCCCCCCCCCCC (stereo partly specified) [GlcCer(d18:1/20:0)]	287.8	–	–	–
CCCCCCCCCCCCC=CC[C@@H](O)[C@H](CO[C@@H]1O[C@H](CO)[C@@H](O)C(O)C1O)NC(=O)CCCCCCCCCCCCCCCCCCCCC (stereo partly specified) [GlcCer(d18:1/22:0)]	293.2	–	294.3	–
CCCCCCCCCCCCC=CC[C@@H](O)[C@H](CO[C@@H]1O[C@H](CO)[C@@H](O)C(O)C1O)NC(=O)CC=CCCCCCCCCCCCCCCCCCC (stereo partly specified) [GlcCer(d18:1/22:1)]	293.1	–	290.1	–
CCCCCCCCCCCCC=CC[C@@H](O)[C@H](CO[C@@H]1O[C@H](CO)[C@@H](O)C(O)C1O)NC(=O)CCCCCCCCCCCCCCCCCCCCCCC (stereo partly specified) [GlcCer(d18:1/24:0)]	299.7	–	299.1	–
CCCCCCCCCCCCCC(=O)OC[C@@H](O)COP(=O)([O-])OCC[N+](C)(C)C [LPC(14:0)]	220.8	–	–	collision cross section (N2) ([2]; [M+HCOO]-): 227 Å²
CCCCCCCCCCCCCCCC/C=C\OC[C@@H](O)COP(=O)([O-])OCC[NH3+] [LPE(p18:0)]	222.5	211.4	222	–
CCCCCCCC/C=C\CCCCCCCC(=O)OC[C@H](COP(=O)(O)O[C@H]1C(O)C(O)C(O)[C@@H](OP(=O)(O)O)C1O)OC(=O)CCCCCCC/C=C\CCCCCCCC (stereo partly specified) [PIP(36:2)]	–	–	–	collision cross section (N2) ([1]; [M+H-H2O]+): 295.5 Å²
CCCCCCCCCCCCC=CC[C@@H](O)[C@H](COP(=O)([O-])OCC[N+](C)(C)C)NC(=O)CC=CCC=CCCCCCCCCCCCCCCC [SM(40:3)]	–	–	–	collision cross section (N2) [3]: 299.9 Å²; collision cross section (N2) ([2]; [M+H]+): 294.6 Å²

Second part, led by results:

collision cross section (N2) ([1]; [M+H]+) [Å²]	collision cross section (N2) ([1]; [M-H]-) [Å²]	collision cross section (N2) ([1]; [M+Na]+) [Å²]	Compound	also measured
304.5	–	304.7	CCCCCCCCCCCCC=CC[C@@H](O)[C@H](CO[C@@H]1O[C@H](CO)[C@@H](O)C(O)C1O)NC(=O)CC=CCCCCCCCCCCCCCCCCCCCCCC (stereo partly specified) [GlcCer(d18:1/26:1)]	–
213.4	206	218.8	CCCCCCCCCCCCCCCC(=O)O[C@H](CO)COP(=O)(O)OCCN [LPE(16:0)]	collision cross section (N2) ([2]; [M+H]+): 213.7 Å²; collision cross section (N2) ([2]; [M+Na]+): 219.9 Å²; collision cross section (N2) ([2]; [M-H]-): 207.1 Å²
–	257.9	–	CCCC/C=C\C/C=C\CCCCCCCC(=O)O[C@H](COC(=O)CCCCCCC/C=C\CCCCCCCCC)COP(=O)(O)O [PA(36:3)]	collision cross section (N2) ([2]; [M+NH4]+): 270.8 Å²
–	257.1	–	CCCCC/C=C\C/C=C\C/C=C\C/C=C\CCCCCC(=O)O[C@H](COC(=O)CCCCCCCCCCCCC)COP(=O)(O)O [PA(36:4)]	collision cross section (N2) ([2]; [M+NH4]+): 272.4 Å²; collision cross section (N2) ([2]; [M-H]-): 258.1 Å²
292.5	–	–	CCCCCCCCCCCCCCCCCCC(=O)O[C@H](COC(=O)CCCCCCCCCCCCCCCC)COP(=O)([O-])OCC[N+](C)(C)C [PC(36:0)]	–
280.2	–	–	CC/C=C\C/C=C\C/C=C\C/C=C\C/C=C\C/C=C\CCC(=O)OC[C@H](COP(=O)(O)OCCN)OC(=O)CCC/C=C\C/C=C\C/C=C\C/C=C\C/C=C\CC [PE(42:11)]	–
286.9	276.1	290.1	CCCCC/C=C\C/C=C\C/C=C\C/C=C\CCCC(=O)O[C@H](CO/C=C\CCCCCCCCCCCCCCCCCC)COP(=O)(O)OCCN [PE(p40:4)]	–
–	–	288.3	CC/C=C\C/C=C\C/C=C\C/C=C\C/C=C\CCCC(=O)OC[C@H](COP(=O)(O)OC[C@@H](O)CO)OC(=O)CCCCCCCCC/C=C\C/C=C\CCCCC [PG(40:7)]	–
–	–	292.4	CCCCC/C=C\C/C=C\C/C=C\CCCCCCC(=O)O[C@H](COC(=O)CCCC/C=C\C/C=C\C/C=C\CCCCC)COP(=O)(O)O[C@H]1C(O)C(O)C(O)[C@@H](O)C1O (stereo partly specified) [PI(38:6)]	–
–	279	–	CCCCC/C=C\C/C=C\C/C=C\CCCCCCC(=O)OC[C@H](COP(=O)(O)OC[C@H](N)C(=O)O)OC(=O)CCCCCCC/C=C\C/C=C\CCCCC [PS(38:5)]	–
292.2	–	–	CCCCCCCCCCCCC=CC[C@@H](O)[C@H](COP(=O)([O-])OCC[N+](C)(C)C)NC(=O)CCCCCCCCCCCCCCCCCCC [SM(d18:1/20:0)]	–
302.2	–	–	CCCCCCCCCCCCC=CC[C@@H](O)[C@H](COP(=O)([O-])OCC[N+](C)(C)C)NC(=O)CCCCCCCCCCCCCCCCCCCCCCC [SM(d18:1/24:0)]	–
300.7	–	–	CCCCCCCCCCCCC=CC[C@@H](O)[C@H](COP(=O)([O-])OCC[N+](C)(C)C)NC(=O)CC=CCCCCCCCCCCCCCCCCCCCC [SM(d18:1/24:1)]	–
